# The source made the active and inactive calls. No cut-off for these calls is given here.
# How the values were obtained:
# Botrytis cinerea [1] = assay: Antifungal activity against Botryotinia fuckeliana assessed as radial mycelia growth inhibition at 25 degC at 100 umol relative to control (crop protection Lilium longiflorum Thunb.); type: functional
# Botrytis cinerea [2] = assay: Antifungal activity against Botryotinia fuckeliana assessed as radial mycelia growth inhibition at 25 degC at 1 to 100 umol relative to control (crop protection Lilium longiflorum Thunb.); type: functional, organism-based
Structure (SMILES),growth inhibition (GI) (Botrytis cinerea [1]),growth inhibition (GI) (Botrytis cinerea [2])
C[C@H](CC[C@@]1(O)O[C@H]2C[C@H]3[C@@H]4CC=C5C[C@@H](O[C@@H]6O[C@H](CO)[C@@H](O[C@@H]7O[C@H](CO)[C@@H](O)[C@H](O)[C@H]7O)[C@H](O)[C@H]6O[C@@H]6O[C@@H](C)[C@H](O)[C@@H](O)[C@H]6O)CC[C@]5(C)[C@H]4CC[C@]3(C)[C@H]2[C@@H]1C)CO[C@@H]1O[C@H](CO)[C@@H](O)[C@H](O)[C@H]1O,25%,–
CC(=O)OC[C@H]1O[C@@H](O[C@H]2[C@H](O)[C@@H](O[C@@H]3O[C@@H](C)[C@H](O)[C@@H](O)[C@H]3O)[C@H](O[C@H]3CC[C@@]4(C)C(=CC[C@H]5[C@@H]6C[C@@H]7O[C@]8(CC[C@@H](C)CN8)[C@@H](C)[C@@H]7[C@@]6(C)CC[C@@H]54)C3)O[C@@H]2CO)[C@H](O)[C@@H](O)[C@@H]1O,49%,–
C[C@H](CC[C@@]1(O)O[C@H]2C[C@H]3[C@@H]4CC=C5C[C@@H](O[C@@H]6O[C@H](CO)[C@@H](O)[C@H](O[C@@H]7OC[C@H](O)[C@H](O)[C@H]7O)[C@H]6O[C@@H]6O[C@@H](C)[C@H](O)[C@@H](O)[C@H]6O)CC[C@]5(C)[C@H]4CC[C@]3(C)[C@H]2[C@@H]1C)CO[C@@H]1O[C@H](CO)[C@@H](O)[C@H](O)[C@H]1O,25%,–
C[C@@H]1CC[C@@]2(NC1)O[C@H]1C[C@H]3[C@@H]4CC=C5C[C@@H](O[C@@H]6O[C@H](CO)[C@@H](O[C@@H]7O[C@H](CO)[C@@H](O)[C@H](O)[C@H]7O)[C@H](O)[C@H]6O[C@@H]6O[C@@H](C)[C@H](O)[C@@H](O)[C@H]6O)CC[C@]5(C)[C@H]4CC[C@]3(C)[C@H]1[C@@H]2C,–,Active
C[C@H](CC[C@@]1(O)O[C@H]2C[C@H]3[C@@H]4CC=C5C[C@@H](O[C@@H]6O[C@H](CO)[C@@H](O)[C@H](O[C@@H]7OC[C@H](O)[C@@H](O)[C@@H]7O)[C@H]6O[C@@H]6O[C@@H](C)[C@H](O)[C@@H](O)[C@H]6O)CC[C@]5(C)[C@H]4CC[C@]3(C)[C@H]2[C@@H]1C)CO[C@@H]1O[C@H](CO)[C@@H](O)[C@H](O)[C@H]1O,25%,–

# Reference: ChEMBL document CHEMBL3045412, “Antifungal activity and fungal metabolism of steroidal glycosides of Easter lily (Lilium longiflorum Thunb.) by the plant pathogenic fungus, Botrytis cinerea” (2011)
